The source of these data is article PMC4382590 (Biochemistry, 2015).

The target of assay [1] is T1, saFabI (Staphylococcus aureus, UniProt Q6GI75).
T1 sequence (Q6GI75 1-256): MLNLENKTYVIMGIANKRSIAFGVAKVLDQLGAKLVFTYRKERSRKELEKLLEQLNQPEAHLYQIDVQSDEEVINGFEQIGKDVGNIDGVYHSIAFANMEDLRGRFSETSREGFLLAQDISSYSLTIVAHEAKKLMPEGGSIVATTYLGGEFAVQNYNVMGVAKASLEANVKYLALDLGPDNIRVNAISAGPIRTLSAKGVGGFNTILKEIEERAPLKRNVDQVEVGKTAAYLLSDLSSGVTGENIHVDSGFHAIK
Nature of the assay: X-ray crystal structure. The format is binding. To be noted: ternary complexes with PT12, PT400, PT404, PT449 or MUT37307.

The target in the next assay is T2, ecFabI (Escherichia coli, UniProt P0AEK4).
T2 sequence (P0AEK4 1-262): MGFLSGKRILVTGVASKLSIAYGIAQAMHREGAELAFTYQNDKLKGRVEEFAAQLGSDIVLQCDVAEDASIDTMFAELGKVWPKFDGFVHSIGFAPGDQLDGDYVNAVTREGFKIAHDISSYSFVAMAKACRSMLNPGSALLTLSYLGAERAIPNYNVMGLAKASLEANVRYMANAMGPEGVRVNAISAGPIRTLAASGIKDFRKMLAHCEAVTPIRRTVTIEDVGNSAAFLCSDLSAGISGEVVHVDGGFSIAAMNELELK
Nature of the assay: X-ray crystal structure. The format is binding.

For assay [2], the target named is T1, saFabI. Nature of the assay: ThermoFluor thermal shift. Conditions: Tm of free enzyme 62.6. The format is binding.
Assay [3] addresses T1, saFabI. Put plainly: single-concentration progress curve analysis. The format is biochemical.

Take `NC(=O)c1ccc[n+]([C@@H]2O[C@H](COP(=O)(O)OP(=O)(O)OC[C@H]3O[C@@H](n4cnc5c(N)ncnc54)[C@H](OP(=O)(O)O)[C@@H]3O)[C@@H](O)[C@H]2O)c1` [NADP^+]: the X-ray crystal structure result on saFabI [1] was “saFabI in complex with NADP^+ and PT12, PT400, PT404, PT449, or MUT37307”.
As for `NC(=O)c1ccc[n+]([C@@H]2O[C@H](COP(=O)(O)OP(=O)(O)OC[C@H]3O[C@@H](n4cnc5c(N)ncnc54)[C@H](O)[C@@H]3O)[C@@H](O)[C@H]2O)c1` [NAD^+], the X-ray crystal structure entry on ecFabI (ternary complex with PT449) is “ecFabI in complex with NAD^+ and PT449 have been deposited in the PDB”.
With `N#Cc1cc(Br)ccc1Oc1ccc(Cl)cc1O` [PT449], on ecFabI (ternary complex with NAD+), the X-ray crystal structure result was “ecFabI in complex with NAD^+ and PT449 have been deposited in the PDB”.
Turning to `Cc1c(N)cccc1Cn1ccc(OCCc2cccs2)cc1=O` [CG400549], on saFabI [2] (ternary complex with NADPH), the “Wild-type saFabI” value was 71.2 °C.
At saFabI [3], `CCc1cc(O)c(Oc2ccc([N+](=O)[O-])cc2Cl)cc1F` [PT404] came in with a Ki of 0.75 nM. That is a sub-nanomolar value.
On the same count and under the same terms, the value for `CCCCCCc1ccc(Oc2ccc([N+](=O)[O-])cc2)c(O)c1` [PT12] was 0.05 nM.
For the compound `CCCCCCc1ccc(Oc2ccccc2C#N)c(O)c1` [PT119], the “Wild-type saFabI” value at saFabI [2] (ternary complex with NADP+) was 70.4 °C.
